Measurements from PubChem BioAssay AID1259407 (Chemical Carcinogenesis Research Information System (CCRIS), 2018).
Calls of active or inactive are those of the source. The rule behind the calls is not given here.

Test system: CCRIS mutagenicity, Ames/micronucleus/aberration tests
Assay: CCRIS mutagenicity studies
[1] = Test System: AMES SALMONELLA TYPHIMURIUM, Strain/Indicator: TA97A, Metabolic Activation: NONE, Method: STANDARD PLATE
[2] = Test System: AMES SALMONELLA TYPHIMURIUM, Strain/Indicator: TA100, Metabolic Activation: NONE, Method: PREINCUBATION
[3] = Test System: AMES SALMONELLA TYPHIMURIUM, Strain/Indicator: TA100, Metabolic Activation: NONE, Method: STANDARD PLATE

Q: What does the source list for O=C1c2cccc(O)c2C(=O)c2c(O)cc(CO)cc21?
A: mutagenic call [1]: active; positive; mutagenic call (Test System: AMES SALMONELLA TYPHIMURIUM, Strain/Indicator: TA97A, Metabolic Activation: RAT, LIVER, S-9, AROCLOR 1254, Method: STANDARD PLATE): active; positive; mutagenic call (Test System: AMES SALMONELLA TYPHIMURIUM, Strain/Indicator: TA98, Metabolic Activation: NONE, Method: STANDARD PLATE): active; positive; mutagenic call (Test System: AMES SALMONELLA TYPHIMURIUM, Strain/Indicator: TA98, Metabolic Activation: RAT, LIVER, S-9, PCB, Method: PREINCUBATION): inactive; negative; mutagenic call (Test System: AMES SALMONELLA TYPHIMURIUM, Strain/Indicator: TA98, Metabolic Activation: RAT, LIVER, S-9, Method: PREINCUBATION): active; positive; mutagenic call [2]: inactive; negative; mutagenic call [3]: inactive; negative; mutagenic call (Test System: AMES SALMONELLA TYPHIMURIUM, Strain/Indicator: TA100, Metabolic Activation: RAT, LIVER, S-9, AROCLOR 1254, Method: STANDARD PLATE): inactive; negative; mutagenic call (Test System: AMES SALMONELLA TYPHIMURIUM, Strain/Indicator: TA100, Metabolic Activation: RAT, LIVER, S-9, PCB, Method: PREINCUBATION): active; positive; mutagenic call (Test System: AMES SALMONELLA TYPHIMURIUM, Strain/Indicator: TA102, Metabolic Activation: NONE, Method: STANDARD PLATE): inactive; negative; mutagenic call (Test System: AMES SALMONELLA TYPHIMURIUM, Strain/Indicator: TA102, Metabolic Activation: RAT, LIVER, S-9, AROCLOR 1254, Method: STANDARD PLATE): active; positive; mutagenic call (Test System: AMES SALMONELLA TYPHIMURIUM, Strain/Indicator: TA102, Metabolic Activation: RAT, LIVER, S-9, Method: PREINCUBATION): active; positive; mutagenic call (Test System: AMES SALMONELLA TYPHIMURIUM, Strain/Indicator: TA1535, Metabolic Activation: NONE, Method: STANDARD PLATE): inactive; negative; mutagenic call (Test System: AMES SALMONELLA TYPHIMURIUM, Strain/Indicator: TA1535, Metabolic Activation: RAT, LIVER, S-9, AROCLOR 1254, Method: STANDARD PLATE): inactive; negative; mutagenic call (Test System: AMES SALMONELLA TYPHIMURIUM, Strain/Indicator: TA1537, Metabolic Activation: NONE, Method: PREINCUBATION): active; positive; mutagenic call (Test System: AMES SALMONELLA TYPHIMURIUM, Strain/Indicator: TA1537, Metabolic Activation: NONE, Method: STANDARD PLATE): active; positive; mutagenic call (Test System: AMES SALMONELLA TYPHIMURIUM, Strain/Indicator: TA1537, Metabolic Activation: RAT, LIVER, S-9, Method: PREINCUBATION): active; positive; mutagenic call (Test System: AMES SALMONELLA TYPHIMURIUM, Strain/Indicator: TA1538, Metabolic Activation: NONE, Method: PREINCUBATION): active; positive; mutagenic call (Test System: AMES SALMONELLA TYPHIMURIUM, Strain/Indicator: TA1538, Metabolic Activation: NONE, Method: STANDARD PLATE): active; positive; mutagenic call (Test System: AMES SALMONELLA TYPHIMURIUM, Strain/Indicator: TA1538, Metabolic Activation: RAT, LIVER, S-9, AROCLOR 1254, Method: STANDARD PLATE): active; positive; mutagenic call (Test System: AMES SALMONELLA TYPHIMURIUM, Strain/Indicator: TA1538, Metabolic Activation: RAT, LIVER, S-9, Method: PREINCUBATION): active; positive; mutagenic call (Test System: AMES SALMONELLA TYPHIMURIUM, Strain/Indicator: TA1978, Metabolic Activation: NONE, Method: PREINCUBATION): active; positive; mutagenic call (Test System: AMES SALMONELLA TYPHIMURIUM, Strain/Indicator: TA1978, Metabolic Activation: RAT, LIVER, S-9, Method: PREINCUBATION): inactive; negative; mutagenic call (Test System: CHINESE HAMSTER V-79, Strain/Indicator: V-79 (HGPRT)/6-THIOGUANINE, Metabolic Activation: NONE): inactive; negative; mutagenic call (Test System: CHINESE HAMSTER V-79, Strain/Indicator: V-79 (HPRT)/6-THIOGUANINE, Metabolic Activation: NONE): inactive; negative; mutagenic call (Test System: CHINESE HAMSTER V-79, Strain/Indicator: V-79 (HPRT)/6-THIOGUANINE, Metabolic Activation: RAT, LIVER, S-9, AROCLOR 1254): inactive; negative; mutagenic call (Test System: CHINESE HAMSTER V-79, Strain/Indicator: V-79/8-AZAGUANINE, Metabolic Activation: NONE, Method: STANDARD PLATE): active; positive; mutagenic call (Test System: UDS RAT HEPATOCYTES, Strain/Indicator: THY INCORP, Metabolic Activation: NONE, Method: AUTORADIOGRAPHY): inactive; negative; mutagenic call (Test System: UDS RAT HEPATOCYTES, Strain/Indicator: THY INCORP, Metabolic Activation: NONE, Method: IN VIVO-IN VITRO): inactive; negative; mutagenic call (Test System: UDS RODENT HEPATOCYTES, Strain/Indicator: THY INCORP (NON-S-PHASE), Metabolic Activation: NONE, Method: AUTORADIOGRAPHY): active; positive

Q: N#C[Se]Cc1ccccc1 was tested. Which mutagenic call [1] did it give?
A: inactive; negative

Q: And the mutagenic call [3]?
A: active; positive

Q: O=C(OCC1CO1)c1cccc(C(=O)OCC2CO2)c1 (configuration not stated) was tested. Which mutagenic call (Test System: AMES SALMONELLA TYPHIMURIUM, Strain/Indicator: TA97, Metabolic Activation: HAMSTER, LIVER, S-9, AROCLOR 1254 (10%), Method: PREINCUBATION) did it give?
A: inactive; negative

Q: And the mutagenic call (Test System: AMES SALMONELLA TYPHIMURIUM, Strain/Indicator: TA97, Metabolic Activation: NONE, Method: PREINCUBATION)?
A: active; positive

Q: What about the mutagenic call (Test System: AMES SALMONELLA TYPHIMURIUM, Strain/Indicator: TA97, Metabolic Activation: RAT, LIVER, S-9, AROCLOR 1254 (10%), Method: PREINCUBATION) of the same molecule?
A: inactive; negative

Q: What about the mutagenic call (Test System: AMES SALMONELLA TYPHIMURIUM, Strain/Indicator: TA98, Metabolic Activation: HAMSTER, LIVER, S-9, AROCLOR 1254 (10%), Method: PREINCUBATION) of the same molecule?
A: inactive; negative

Q: And the mutagenic call (Test System: AMES SALMONELLA TYPHIMURIUM, Strain/Indicator: TA98, Metabolic Activation: NONE, Method: PREINCUBATION)?
A: inactive; negative

Q: What about the mutagenic call (Test System: AMES SALMONELLA TYPHIMURIUM, Strain/Indicator: TA98, Metabolic Activation: RAT, LIVER, S-9, AROCLOR 1254 (10%), Method: PREINCUBATION) of the same molecule?
A: inactive; negative

Q: And the mutagenic call (Test System: AMES SALMONELLA TYPHIMURIUM, Strain/Indicator: TA100, Metabolic Activation: HAMSTER, LIVER, S-9, AROCLOR 1254 (10%), Method: PREINCUBATION)?
A: active; positive

Q: What about the mutagenic call [2] of the same molecule?
A: active; positive

Q: What about the mutagenic call (Test System: AMES SALMONELLA TYPHIMURIUM, Strain/Indicator: TA100, Metabolic Activation: RAT, LIVER, S-9, AROCLOR 1254 (10%), Method: PREINCUBATION) of the same molecule?
A: active; positive

Q: And the mutagenic call (Test System: AMES SALMONELLA TYPHIMURIUM, Strain/Indicator: TA1535, Metabolic Activation: HAMSTER, LIVER, S-9, AROCLOR 1254 (10%), Method: PREINCUBATION)?
A: active; positive

Q: What about the mutagenic call (Test System: AMES SALMONELLA TYPHIMURIUM, Strain/Indicator: TA1535, Metabolic Activation: NONE, Method: PREINCUBATION) of the same molecule?
A: active; positive

Q: What about the mutagenic call (Test System: AMES SALMONELLA TYPHIMURIUM, Strain/Indicator: TA1535, Metabolic Activation: RAT, LIVER, S-9, AROCLOR 1254 (10%), Method: PREINCUBATION) of the same molecule?
A: active; positive

Q: With CCN(CC)c1ccc(C(=C2C=CC(=[N+](CC)CC)C=C2)c2ccccc2)cc1 as the molecule, how does the mutagenic call (Test System: AMES SALMONELLA TYPHIMURIUM, Strain/Indicator: TA100, Method: PREINCUBATION) read?
A: active; positive

Q: What does the source list for Nc1nc(OCc2ccccc2)c2[nH]cnc2n1?
A: mutagenic call (Test System: Mouse lymphoma, Strain/Indicator: L5178Y (tk+/tk-), Metabolic Activation: None, Method: Suspension/plate): active; positive; mutagenic call (Test System: Mouse lymphoma, Strain/Indicator: L5178Y (tk+/tk-), Metabolic Activation: Rat, Liver, S-9, Aroclor 1254, Method: Suspension/plate): inconclusive
